{"source": "patent US20050042240A1", "about": "“High viscosity antibacterials” (priority 2002, published 2005)", "origin": "cited, not measured here", "settings": "chronic catheter lock context"}
{"smiles": "CC(C)O", "note": "[isopropyl alcohol]", "values": [{"measurement": "daily dose above which toxic symptoms can arise", "value": "> 500", "unit": "mg"}]}
